Measurements as given in the NIST ThermoML archive (doi:10.1021/je050065n).
± gives the expanded uncertainty stated by the source.

Key:
[1] = molar heat capacity at constant pressure; details: 101.33 kPa
[2] = Molar enthalpy of transition or fusion; details: Crystal
[3] = Crystal

CCCCCCCCCCCCC(=O)OCC [ethyl tridecanoate]
[1]
Details	molar heat capacity at constant pressure [J/K/mol]
203.72 K, Crystal	303.18 ± 4
204.3 K, Crystal	304.48 ± 4
206.07 K, Crystal	306.99 ± 4.1
209.03 K, Crystal	310.71 ± 4.1
211.98 K, Crystal	314.26 ± 4.1
214.92 K, Crystal	318.07 ± 4.1
217.87 K, Crystal	321.89 ± 4.2
220.82 K, Crystal	325.88 ± 4.2
226.72 K, Crystal	334 ± 4.3
229.65 K, Crystal	338.41 ± 4.3
232.57 K, Crystal	342.7 ± 4.3
235.47 K, Crystal	347.41 ± 4.4
238.34 K, Crystal	352.35 ± 4.4
241.19 K, Crystal	357.3 ± 4.5
244.03 K, Crystal	362.39 ± 4.5
246.84 K, Crystal	368.11 ± 4.5
249.63 K, Crystal	374.08 ± 4.6
252.4 K, Crystal	380.86 ± 4.7
255.15 K, Crystal	387.34 ± 4.7
257.88 K, Crystal	398.08 ± 4.8
260.57 K, Crystal	413.23 ± 4.9
277.28 K, Liquid	486.51 ± 2.8
279.73 K, Liquid	487.34 ± 2.8
282.18 K, Liquid	488.17 ± 2.8
288.64 K, Liquid	490.72 ± 2.8
291.29 K, Liquid	492.03 ± 2.8
293.93 K, Liquid	493 ± 2.8
296.56 K, Liquid	494.67 ± 2.8
299.2 K, Liquid	496 ± 2.8
301.82 K, Liquid	497.42 ± 2.8
304.44 K, Liquid	498.94 ± 2.8
307.06 K, Liquid	500.72 ± 2.8
309.67 K, Liquid	502.48 ± 2.8
312.27 K, Liquid	503.98 ± 2.8
314.87 K, Liquid	505.99 ± 2.8
317.47 K, Liquid	507.58 ± 2.8
320.06 K, Liquid	509.22 ± 2.8

Details	Molar enthalpy of transition or fusion [kcal/mol]	Triple point temperature [K]
[2]	9.728 ± 0.0717	–
[3]	–	272.4 ± 0.3
